Paper PMC6692898 (Chemical research in toxicology, 2019)
Where two headings read alike, the source gives them in different places.

How the values were obtained:
[1] = target: CYP2C19 (Homo sapiens, UniProt P33261); assay: Steady-state kinetics by recombinant CYP2C19 Supersomes; type: in vitro ADME
[2] = cited from earlier work
[3] = Time-course decay of TBF-A in HLM, control Supersomes and isozyme Supersomes; type: in vitro ADME, human
[4] = 1-Naphthaldehyde decay/depletion in human liver microsomes and Supersomes; type: in vitro ADME
[5] = substrate: CN(C/C=C/C#CC(C)(C)C)Cc1cccc2ccccc12; assay: cells, lysate or membranes named; details: CYP2C19, pH 7.4
[6] = 50 μM TBF-A, normalized per mg/protein
[7] = step 2.2a, metabolite 1-naphthyl-methylamine, CYP2C19
[8] = step 2.2b, metabolite 1-naphthaldehyde, CYP2C19

In the case of `CN(C/C=C/C#CC(C)(C)C)Cc1cccc2ccccc12` [terbinafine], the Km at 30 min ([1]; human, recombinant CYP2C19 Supersomes, pH 7.4, Km (affinity), CYP2C19, oxidative nondealkylation reactions) is listed as less than 100 µM, the “time remaining at therapeutic levels in the body after therapy ceases” value ([2]; due to bioaccumulation) is listed as “up to a month” and the plasma levels ([2]; reported) is listed as 1000 ng/mL. For the same molecule, the protein binding ([2]; reported) was greater than 99%.

In the case of `CC(C)(C)C#CC=CC=O` [TBF-A, 6,6-dimethyl-2-hepten-4-ynal], the “end-point plateau for CYP3A4 higher than that of HLM” value ([3]; 50 μM TBF-A decay) is reported as roughly 4 fold, the “end-point plateau of CYP2C19 higher than for both HLM and control Supersomes” value ([3]; 50 μM TBF-A decay) is reported as “roughly 2 fold” and the “decay faster in HLM compared to CYP2C19 Supersomes” value [3, 6] is reported as 13%. The “decay faster in HLM compared to CYP3A4 Supersomes” value [3, 6] was 55%.

For `O=Cc1cccc2ccccc12` [1-naphthaldehyde], the “effect of microsomes and NADPH on decay or disappearance” value ([4]; 50 μM 1-naphthaldehyde, active or heat-inactivated human liver microsomes, presence or absence of NADPH) was “not significantly affected” and the “depletion in Supersomes compared with human liver microsomes” value ([4]; 10 and 50 μM 1-naphthaldehyde, NADPH, CYP2C19 and 3A4 Supersomes, after 30 min) was “more significant decrease”.

With `CC(C)(C)C#C/C=C/CNCc1cccc2ccccc12` [desmethyl-terbinafine] the “Km higher than the value for terbinafine N-denaphthylation (Pathway 3)” value ([1]; CYP2C19) was “about 5 fold”, the “decrease in N-denaphthylation catalytic efficiency from terbinafine to desmethyl-terbinafine” value ([1]; CYP2C19) was roughly 15 fold and the “higher rate of turnover (Vmax) than for the parent drug” value ([1]; N-denaphthylation by CYP2C19) was “about 3 fold”. The “efficiency of 1-naphthyl methylamine formation by CYP2C19 relative to 3A4” value ([1]; Pathway 2.2a) was “about 3 fold”, the “higher Vmax for CYP2C19” value ([1]; formation of the desmethyl-terbinafine dihydrodiols, loss of the methyl group) was “approximately 10 fold” and the Km ([1]; read-out: Km (affinity), CYP2C19, oxidative nondealkylation reactions) was less than 100 µM. For the same molecule, the Km [1, 7] was 220 ± 55 µM, the V/K [1, 7] was 3.7 and the Vmax [1, 7] was 810 ± 92 pmol/min/nmol of protein. The Km [1, 8] was 150 ± 58 µM, the V/K [1, 8] was 8.7 and the Vmax [1, 8] was 1300 ± 59 pmol/min/nmol of protein.

B1: CYP2C19 (Homo sapiens) (protein)
chain: MDPFVVLVLCLSCLLLLSIWRQSSGRGKLPPGPTPLPVIGNILQIDIKDVSKSLTNLSKIYGPVFTLYFGLERMVVLHGYEVVKEALIDLGEEFSGRGHFPLAERANRGFGIVFSNGKRWKEIRRFSLMTLRNFGMGKRSIEDRVQEEARCLVEELRKTKASPCDPTFILGCAPCNVICSIIFQKRFDYKDQQFLNLMEKLNENIRIVSTPWIQICNNFPTIIDYFPGTHNKLLKNLAFMESDILEKVKEHQESMDINNPRDFIDCFLIKMEKEKQNQQSEFTIENLVITAADLLGAGTETTSTTLRYALLLLLKHPEVTAKVQEEIERVIGRNRSPCMQDRGHMPYTDAVVHEVQRYIDLIPTSLPHAVTCDVKFRNYLIPKGTTILTSLTSVLHDNKEFPNPEMFDPRHFLDEGGNFKKSNYFMPFSAGKRICVGEGLARMELFLFLTFILQNFNLKSLIDPKDLDTTPVVNGFASVPPFYQLCFIPV
In the case of B1, the Km ([5]; other: step 1.1, metabolite N-methyl-1-naphthyl-methylamine) is reported as 120 ± 22 µM, the Km ([5]; other: step 2.1, metabolite desmethyl-terbinafine) is reported as 37 ± 6.7 µM and the Km ([5]; other: step 3.1, metabolite 1-naphthaldehyde) is reported as 3.0 ± 0.83 µM.
